Laboratory results as given in article PMC5146859, “Phase 1/2 study of pacritinib, a next generation JAK2/FLT3 inhibitor, in myelofibrosis or other myeloid malignancies” (Journal of Hematology & Oncology, 2016).

Test system: patients with MF
Assay: Phase 2 safety: adverse events, serious adverse events and deaths
Type: in vivo, human
Experimental: At screening/baseline, patients underwent a medical history, physical examination, vital sign assessment, ECOG PS assessment, electrocardiogram, and assessment of hematologic parameters and blood chemistry. Hematology/blood chemistry, physical examinations, and vital sign assessments were performed throughout treatment. Toxicity was assessed using the National Cancer Institute Common Terminology Criteria for Adverse Events (NCIC-CTCAE), version 3.0, with relationship to treatment assigned by the investigator and were recorded from the first dose of pacritinib until 30 days after the last dose. Bone marrow biopsy and/or aspirate samples were drawn at baseline, on day 1 of cycle 4 and cycle 10, as clinically indicated, and at the termination visit. Disease response and progression were determined using the relevant International Working Group (IWG) criteria.
The efficacy-evaluable population included those patients with a baseline and corresponding follow-up value. The safety population included all enrolled patients who received ≥1 dose of pacritinib.

C1=C/COCc2cc(ccc2OCCN2CCCC2)Nc2nccc(n2)-c2cccc(c2)COC/1 [pacritinib, 11-(2-pyrrolidin-1-yl-ethoxy)-14,19-dioxa-5,7,26-triaza-tetracyclo[19.3.1.1(2,6). 1(8,12)]heptacosa-1(25),2(26),3,5,8,10,12(27),16,21,23-decaene]
Treatment-emergent AE: Anemia (phase 2, n = 31, Grade 2): 1 (3.2) n (%) | Treatment-emergent AE: Asthenia (phase 2, n = 31, Grade 2): 1 (3.2) n (%) | Treatment-emergent AE: Bone pain (phase 2, n = 31, Grade 2): 1 (3.2) n (%) | Treatment-emergent AE: Cardiac murmur (phase 2, n = 31, Grade 2): 4 (12.9) n (%) | Treatment-emergent AE: Constipation (phase 2, n = 31, Grade 2): 0 n (%) | Treatment-emergent AE: Diarrhea (phase 2, n = 31, Grade 2): 9 (29.0) n (%) | Treatment-emergent AE: Dyspnea (phase 2, n = 31, Grade 2): 0 n (%) | Treatment-emergent AE: Edema peripheral (phase 2, n = 31, Grade 2): 5 (16.1) n (%) | Treatment-emergent AE: Fatigue (phase 2, n = 31, Grade 2): 11 (35.5) n (%) | Treatment-emergent AE: Hyperuricemia (phase 2, n = 31, Grade 2): 0 n (%) | Treatment-emergent AE: Insomnia (phase 2, n = 31, Grade 2): 2 (6.5) n (%) | Treatment-emergent AE: Nausea (phase 2, n = 31, Grade 2): 6 (19.4) n (%) | Treatment-emergent AE: Night sweats (phase 2, n = 31, Grade 2): 3 (9.7) n (%) | Treatment-emergent AE: Pain in extremity (phase 2, n = 31, Grade 2): 2 (6.5) n (%) | Treatment-emergent AE: Pruritus (phase 2, n = 31, Grade 2): 4 (12.9) n (%) | Treatment-emergent AE: Pyrexia (phase 2, n = 31, Grade 2): 0 n (%) | Treatment-emergent AE: Rash (phase 2, n = 31, Grade 2): 1 (3.2) n (%) | Treatment-emergent AE: Upper respiratory tract infection (phase 2, n = 31, Grade 2): 1 (3.2) n (%) | Treatment-emergent AE: Vomiting (phase 2, n = 31, Grade 2): 3 (9.7) n (%) | Treatment-emergent AE: Weight decreased (phase 2, n = 31, Grade 2): 0 n (%) | Treatment-emergent AE: Abdominal pain (phase 2, n = 31, Grade 3): 3 (9.7) n (%) | Treatment-emergent AE: Anemia (phase 2, n = 31, Grade 3): 3 (9.7) n (%) | Treatment-emergent AE: Asthenia (phase 2, n = 31, Grade 3): 0 n (%) | Treatment-emergent AE: Bone pain (phase 2, n = 31, Grade 3): 4 (12.9) n (%) | Treatment-emergent AE: Cardiac murmur (phase 2, n = 31, Grade 3): 0 n (%) | Treatment-emergent AE: Constipation (phase 2, n = 31, Grade 3): 0 n (%) | Treatment-emergent AE: Diarrhea (phase 2, n = 31, Grade 3): 5 (16.1) n (%) | Treatment-emergent AE: Dyspnea (phase 2, n = 31, Grade 3): 1 (3.2) n (%) | Treatment-emergent AE: Edema peripheral (phase 2, n = 31, Grade 3): 1 (3.2) n (%) | Treatment-emergent AE: Fatigue (phase 2, n = 31, Grade 3): 4 (12.9) n (%) | Treatment-emergent AE: Hyperuricemia (phase 2, n = 31, Grade 3): 0 n (%) | Treatment-emergent AE: Insomnia (phase 2, n = 31, Grade 3): 0 n (%) | Treatment-emergent AE: Nausea (phase 2, n = 31, Grade 3): 1 (3.2) n (%) | Treatment-emergent AE: Night sweats (phase 2, n = 31, Grade 3): 0 n (%) | Treatment-emergent AE: Pain in extremity (phase 2, n = 31, Grade 3): 0 n (%) | Treatment-emergent AE: Pruritus (phase 2, n = 31, Grade 3): 1 (3.2) n (%) | Treatment-emergent AE: Pyrexia (phase 2, n = 31, Grade 3): 0 n (%) | Treatment-emergent AE: Rash (phase 2, n = 31, Grade 3): 1 (3.2) n (%) | Treatment-emergent AE: Upper respiratory tract infection (phase 2, n = 31, Grade 3): 0 n (%) | Treatment-emergent AE: Vomiting (phase 2, n = 31, Grade 3): 1 (3.2) n (%) | Treatment-emergent AE: Weight decreased (phase 2, n = 31, Grade 3): 0 n (%) | Treatment-emergent AE: Abdominal pain (phase 2, n = 31, Grade 4): 0 n (%) | Treatment-emergent AE: Anemia (phase 2, n = 31, Grade 4): 2 (6.5) n (%) | Treatment-emergent AE: Asthenia (phase 2, n = 31, Grade 4): 0 n (%) | Treatment-emergent AE: Bone pain (phase 2, n = 31, Grade 4): 0 n (%) | Treatment-emergent AE: Cardiac murmur (phase 2, n = 31, Grade 4): 0 n (%) | Treatment-emergent AE: Constipation (phase 2, n = 31, Grade 4): 0 n (%) | Treatment-emergent AE: Diarrhea (phase 2, n = 31, Grade 4): 0 n (%) | Treatment-emergent AE: Dyspnea (phase 2, n = 31, Grade 4): 0 n (%) | Treatment-emergent AE: Edema peripheral (phase 2, n = 31, Grade 4): 0 n (%) | Treatment-emergent AE: Fatigue (phase 2, n = 31, Grade 4): 1 (3.2) n (%) | Treatment-emergent AE: Hyperuricemia (phase 2, n = 31, Grade 4): 2 (6.5) n (%) | Treatment-emergent AE: Insomnia (phase 2, n = 31, Grade 4): 0 n (%) | Treatment-emergent AE: Nausea (phase 2, n = 31, Grade 4): 0 n (%) | Treatment-emergent AE: Night sweats (phase 2, n = 31, Grade 4): 0 n (%) | Treatment-emergent AE: Pain in extremity (phase 2, n = 31, Grade 4): 1 (3.2) n (%) | Treatment-emergent AE: Pruritus (phase 2, n = 31, Grade 4): 0 n (%) | Treatment-emergent AE: Pyrexia (phase 2, n = 31, Grade 4): 0 n (%) | Treatment-emergent AE: Rash (phase 2, n = 31, Grade 4): 0 n (%) | Treatment-emergent AE: Upper respiratory tract infection (phase 2, n = 31, Grade 4): 0 n (%) | Treatment-emergent AE: Vomiting (phase 2, n = 31, Grade 4): 0 n (%) | Treatment-emergent AE: Weight decreased (phase 2, n = 31, Grade 4): 0 n (%) | Patients who died (phase 2, of 33 enrolled): 27.3%
